23 molecules from patent US9133158B2, “Bicyclic dihydroisoquinoline-1-one derivatives” (Hoffmann-La Roche Inc., priority 2011, dated 2015) can be followed below.

The EC50 is the concentration giving half of the maximal effect. A higher EC50 goes with lower potency in that assay.

One experiment deals with T1, human CYP11B2 (Homo sapiens, UniProt P19099).
T1 construct: expressed in transfected cells
T1 sequence (P19099 25-503): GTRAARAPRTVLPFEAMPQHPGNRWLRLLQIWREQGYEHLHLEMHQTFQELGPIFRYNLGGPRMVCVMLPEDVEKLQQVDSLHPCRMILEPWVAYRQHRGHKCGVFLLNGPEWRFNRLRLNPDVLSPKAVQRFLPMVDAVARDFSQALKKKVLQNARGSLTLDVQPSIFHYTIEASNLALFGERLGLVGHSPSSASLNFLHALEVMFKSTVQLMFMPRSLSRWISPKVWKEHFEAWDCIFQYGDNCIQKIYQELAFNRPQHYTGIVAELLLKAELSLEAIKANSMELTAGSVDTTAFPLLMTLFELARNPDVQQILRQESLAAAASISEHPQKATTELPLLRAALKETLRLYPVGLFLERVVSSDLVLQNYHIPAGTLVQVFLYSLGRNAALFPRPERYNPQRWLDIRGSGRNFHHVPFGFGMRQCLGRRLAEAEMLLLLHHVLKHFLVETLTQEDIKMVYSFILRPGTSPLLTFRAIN
Put plainly: G-402 cellular enzyme assay, human CYP11B2 (aldosterone release, HTRF). The format is cell-based. The note with it: G-402 cells, 1 μM Deoxycorticosterone. A digest of the protocol:
(§1)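 Stable G-402 transfectants; 16 h incubation with inhibitor plus substrate — CYP11B2: 1 μM deoxycorticosterone, aldosterone read; CYP11B1: 1 μM deoxycortisol, cortisol read. HTRF on supernatant. Medium DMEM/F12, 2.5% charcoal FCS. EC50 via MMF sigmoidal fit.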
(In general: In TR-FRET formats the signal depends on donor and acceptor labels being close together.)

Another experiment concerns the target T2, human CYP11B1 (Homo sapiens, UniProt P15538).
T2 construct: expressed in transfected cells
T2 sequence (P15538 25-503): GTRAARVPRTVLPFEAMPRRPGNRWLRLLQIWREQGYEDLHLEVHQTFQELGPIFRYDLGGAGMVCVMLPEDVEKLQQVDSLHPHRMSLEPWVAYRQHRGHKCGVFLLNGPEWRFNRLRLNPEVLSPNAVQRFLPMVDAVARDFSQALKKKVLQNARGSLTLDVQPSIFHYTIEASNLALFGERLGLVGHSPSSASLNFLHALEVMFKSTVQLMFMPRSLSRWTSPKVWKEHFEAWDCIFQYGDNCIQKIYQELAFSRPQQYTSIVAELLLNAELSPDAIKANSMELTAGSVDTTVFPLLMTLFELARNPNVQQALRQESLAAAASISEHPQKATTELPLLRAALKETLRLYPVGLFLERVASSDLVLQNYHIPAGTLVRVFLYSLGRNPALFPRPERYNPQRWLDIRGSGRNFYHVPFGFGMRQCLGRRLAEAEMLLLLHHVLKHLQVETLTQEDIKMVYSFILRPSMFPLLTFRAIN
Put plainly: G-402 cellular enzyme assay, human CYP11B1 (cortisol release, HTRF). It is filed as cell-based. The note with it: G-402 cells, 1 μM Deoxycortisol. In a few lines:
as §1

Turning to `CC1CN(c2cncc(F)c2)C(=O)c2ccc(Cl)cc21` (stereo not shown) [Example 106, 6-Chloro-2-(5-fluoro-pyridin-3-yl)-4-methyl-3,4-dihydro-2H-isoquinolin-1-one], the EC50 at human CYP11B2 was 516 nM; at human CYP11B1 it was 8560 nM.

With `CC(c1cncc(N2CCc3cc(Cl)ccc3C2=O)c1)N1CCOC1=O` (stereo not shown) [Example 275, 6-Chloro-2-{5-[1-(2-oxo-oxazolidin-3-yl)-ethyl]-pyridin-3-yl}-3,4-dihydro-2H-isoquinolin-1-one], the EC50 on human CYP11B2 came to 731 nM; on human CYP11B1 it was 7820 nM.

On to `CCC(=O)N[C@H]1CCCc2c1cncc2N1C(=O)c2ccc(Cl)cc2[C@H]1CC` (single isomer, unassigned) [Example 352, N-[(S or R)-4-((R or S)-5-Chloro-3-ethyl-1-oxo-1,3-dihydro-isoindol-2-yl)-5,6,7,8-tetrahydro-isoquinolin-8-yl]-propionamide], for which the EC50 was determined as 96.5 nM on human CYP11B2 and 39400 nM on human CYP11B1.

With `N#Cc1cncc(N2CCc3cc(Cl)ccc3C2=O)c1` [Example 2, 5-(6-Chloro-1-oxo-3,4-dihydro-1H-isoquinolin-2-yl)-nicotinonitrile], the EC50 at human CYP11B2 was found to be 442 nM; on human CYP11B1 it was 7390 nM.

`Cn1nccc1-c1cncc(N2CCc3cc(Cl)ccc3C2=O)c1Cl` [Example 424, 6-Chloro-2-[4-chloro-5-(2-methyl-2H-pyrazol-3-yl)-pyridin-3-yl]-3,4-dihydro-2H-isoquinolin-1-one]: the EC50 was found to be 6.2 nM at human CYP11B2 and 140 nM at human CYP11B1.

Regarding `Cn1ncc(C#N)c1-c1cncc(N2CCc3cc(Cl)ccc3C2=O)c1` [Example 246, 5-[5-(6-Chloro-1-oxo-3,4-dihydro-1H-isoquinolin-2-yl)-pyridin-3-yl]-1-methyl-1H-pyrazole-4-carbonitrile], the EC50 came out at 102 nM on human CYP11B2 and 546 nM at human CYP11B1.

For `COC(C)(C)c1cncc(N2CCc3cc(Cl)ccc3C2=O)c1` [Example 24, 6-Chloro-2-[5-(1-methoxy-1-methyl-ethyl)-pyridin-3-yl]-3,4-dihydro-2H-isoquinolin-1-one], the figures for the EC50 at human CYP11B2 and on human CYP11B1 were 5.6 nM and 21.4 nM, respectively.

On to `CC1(C)c2cc(Cl)ccc2C(=O)N1c1cncc(CN2CCCC2=O)c1` [Example 413, 5-Chloro-3,3-dimethyl-2-[5-(2-oxo-pyrrolidin-1-ylmethyl)-pyridin-3-yl]-2,3-dihydro-isoindol-1-one], for which the EC50 on human CYP11B2 worked out at 20.7 nM; at human CYP11B1, 813 nM.

As to `CCC(=O)N[C@H]1CCCc2c1cncc2N1C(=O)c2ccc(Cl)cc2[C@H]1C` (single isomer, unassigned) [Example 360, N-[(S or R)-4-((R or S)-5-Chloro-3-methyl-1-oxo-1,3-dihydro-isoindol-2-yl)-5,6,7,8-tetrahydro-isoquinolin-8-yl]-propionamide], the EC50 was determined as 853 nM on human CYP11B2 and 16100 nM at human CYP11B1.

In the case of `CC1(C)c2cc(Cl)ccc2C(=O)N1c1cncc(C2CCCN(S(C)(=O)=O)C2)n1` (stereo not shown) [Example 465, 5-Chloro-2-[6-(1-methanesulfonyl-piperidin-3-yl)-pyrazin-2-yl]-3,3-dimethyl-2,3-dihydro-isoindol-1-one], the concentration giving a half-maximal response (EC50) was 66.9 nM on human CYP11B2 and 2270 nM on human CYP11B1.

Turning to `O=c1c2ccc(Cl)cc2ccn1-c1cccnc1` [Example 53, 6-Chloro-2-pyridin-3-yl-2H-isoquinolin-1-one], the values for the EC50 at human CYP11B2 and on human CYP11B1 were 120 nM and 10800 nM, respectively.

For the molecule `COc1cncc(N2C(=O)c3ccc(Cl)cc3C2C)c1` (stereo not shown) [Example 120, 5-Chloro-2-(5-methoxy-pyridin-3-yl)-3-methyl-2,3-dihydro-isoindol-1-one], the 50% effective concentration (EC50) on human CYP11B2 was 24.7 nM; on human CYP11B1, 207 nM.

Regarding `Cn1cnc(CNc2cncc(N3CCc4cc(Cl)ccc4C3=O)c2)c1` [Example 228, 6-Chloro-2-{5-[(1-methyl-1H-imidazol-4-ylmethyl)-amino]-pyridin-3-yl}-3,4-dihydro-2H-isoquinolin-1-one], the half-maximal effective concentration (EC50) amounted to 263 nM on human CYP11B2 and 12400 nM on human CYP11B1.

For `CCC(=O)N[C@H]1CCCc2c1cncc2N1C(=O)c2ccc(Cl)cc2[C@@H]1C` (single isomer, unassigned) [Example 362, N-[(S or R)-4-((S or R)-5-Chloro-3-methyl-1-oxo-1,3-dihydro-isoindol-2-yl)-5,6,7,8-tetrahydro-isoquinolin-8-yl]-propionamide], the EC50 was determined as 53.2 nM at human CYP11B2 and 6090 nM at human CYP11B1.

As to `CC(=O)NC1CCCc2c1cncc2N1C(=O)c2ccc(Cl)cc2C1(C)C` (single isomer, unassigned) [Example 466, N—[(S or R)-4-(6-Chloro-1,1-dimethyl-3-oxo-1,3-dihydro-isoindol-2-yl)-5,6,7,8-tetrahydro-isoquinolin-8-yl]-acetamide], the figures for the EC50 at human CYP11B2 and on human CYP11B1 were 467 nM and 21300 nM, respectively.

`O=C1c2ccc(Cl)cc2CCN1c1cncc2c([N+](=O)[O-])cccc12` [Example 287, 6-Chloro-8′-nitro-3,4-dihydro-[2,4′]biisoquinolinyl-1-one]: the EC50 at human CYP11B2 was found to be 555 nM; on human CYP11B1, 6410 nM.

Take `CCC(=O)N[C@@H]1CCCc2c1cncc2N1C(=O)c2ccc(Cl)cc2[C@@H]1CC` (single isomer, unassigned) [Example 353, N-[(R or S)-4-((S or R)-5-Chloro-3-ethyl-1-oxo-1,3-dihydro-isoindol-2-yl)-5,6,7,8-tetrahydro-isoquinolin-8-yl]-propionamide]: the figures for the 50% effective concentration (EC50) on human CYP11B2 and on human CYP11B1 were 396 nM and 16200 nM, respectively.

On to `CCC1c2cc(Cl)ccc2C(=O)N1c1cncc(C(C)O)c1` (stereo not shown) [Example 283, 5-Chloro-3-ethyl-2-[5-(1-hydroxy-ethyl)-pyridin-3-yl]-2,3-dihydro-isoindol-1-one], for which the EC50 at human CYP11B2 is 66.7 nM; at human CYP11B1, 633 nM.

As for `CC(=O)NC1CCCc2c1cncc2N1Cc2cc(Cl)ccc2C1=O` (single isomer, unassigned) [Example 322, N-[(S or R)-4-(5-Chloro-1-oxo-1,3-dihydro-isoindol-2-yl)-5,6,7,8-tetrahydro-isoquinolin-8-yl]-acetamide], the EC50 on human CYP11B2 was 5140 nM; at human CYP11B1, 39600 nM.

`NC1(c2cncc(N3CCc4cc(Cl)ccc4C3=O)c2)CC1` [Example 57, 2-[5-(1-Amino-cyclopropyl)-pyridin-3-yl]-6-chloro-3,4-dihydro-2H-isoquinolin-1-one]: the EC50 is 1280 nM at human CYP11B2 and 8000 nM on human CYP11B1.

In the case of `O=C1c2ccc(Cl)cc2CN1c1cncc(N2CC[C@@H](O)C2)c1` [Example 138, 5-Chloro-2-[5-((R)-3-hydroxy-pyrrolidin-1-yl)-pyridin-3-yl]-2,3-dihydro-isoindol-1-one], the EC50 on human CYP11B2 is 16.2 nM; at human CYP11B1 it was 193 nM.

On to `O=C1c2ccc(Cl)cc2CCN1c1cncc(Cn2ccc3ccc(F)cc32)c1` [Example 184, 6-Chloro-2-[5-(6-fluoro-indol-1-ylmethyl)-pyridin-3-yl]-3,4-dihydro-2H-isoquinolin-1-one], for which the concentration giving a half-maximal response (EC50) was 17.7 nM at human CYP11B2 and 271 nM on human CYP11B1.

As for `O=C1c2ccc(Cl)cc2CCN1c1cncc(F)c1` [Example 5, 6-Chloro-2-(5-fluoro-pyridin-3-yl)-3,4-dihydro-2H-isoquinolin-1-one], the EC50 at human CYP11B2 was found to be 92.5 nM; at human CYP11B1, 4270 nM.
